Data: the NIST ThermoML archive (doi:10.1021/je400486p)

Test: refractive index (Na D-line) (dimensionless); xn = mol fraction of the nth substance listed
Details: 101.3 kPa, Liquid, Standard Abbe refractometry

COCCOCCOCCOCCOC [2,5,8,11,14-pentaoxapentadecane] + CCC(C)O
refractive index
Details	x2 = 0	x2 = 0.1007	x2 = 0.2003	x2 = 0.3015	x2 = 0.3991	x2 = 0.5011	x2 = 0.6024	x2 = 0.6997	x2 = 0.7998	x2 = 0.9004
288.15 K	1.4345	1.43266	1.43063	1.42851	1.42627	1.42333	1.41994	1.41632	1.41171	1.40624
293.15 K	1.43238	1.43054	1.42851	1.42637	1.42412	1.42118	1.41778	1.41418	1.4096	1.40412
298.15 K	1.43027	1.42843	1.42637	1.42424	1.42197	1.41902	1.41562	1.41202	1.40743	1.40197
303.15 K	1.42815	1.42631	1.42424	1.4221	1.41983	1.41687	1.41347	1.40983	1.40522	1.39977
308.15 K	1.42603	1.4242	1.42212	1.41998	1.41768	1.41473	1.41133	1.40765	1.40302	1.39751
313.15 K	1.42394	1.42209	1.42001	1.41785	1.4155	1.41255	1.40915	1.40543	1.40077	1.39524
318.15 K	1.42183	1.42003	1.4179	1.41571	1.41339	1.41039	1.40698	1.40327	1.39857	1.393
323.15 K	1.41973	1.41794	1.4158	1.4136	1.41127	1.40823	1.40477	1.40104	1.39628	1.39067

CN1CCCC1=O [N-methylpyrrolidone] + CCC(C)O
refractive index
Details	x2 = 0	x2 = 0.1049	x2 = 0.2001	x2 = 0.3009	x2 = 0.4019	x2 = 0.5003	x2 = 0.5995	x2 = 0.7004	x2 = 0.7985	x2 = 0.899
288.15 K	1.47166	1.46489	1.45851	1.45151	1.44431	1.43715	1.42982	1.42227	1.41487	1.40724
293.15 K	1.46952	1.46273	1.45634	1.44937	1.44219	1.43504	1.42772	1.42016	1.41275	1.40512
298.15 K	1.46736	1.46061	1.45418	1.4473	1.44013	1.43298	1.42564	1.41806	1.41063	1.40302
303.15 K	1.4652	1.45844	1.45203	1.44515	1.43799	1.43083	1.42349	1.41587	1.40842	1.40081
308.15 K	1.46306	1.45632	1.44987	1.44301	1.43583	1.42867	1.42131	1.41372	1.40626	1.39861
313.15 K	1.46095	1.45416	1.44773	1.44083	1.43366	1.42651	1.41919	1.41155	1.40406	1.39638
318.15 K	1.45891	1.45204	1.44559	1.43868	1.43152	1.42436	1.41701	1.40934	1.40181	1.39408
323.15 K	1.4568	1.44996	1.4435	1.43654	1.42934	1.42215	1.41481	1.40711	1.39955	1.39172
